{
  "source": "patent US8143421B2",
  "about": "“Broadspectrum substituted benzimidazole sulfonamide HIV protease inhibitors” (priority 2002, dated 2012)",
  "key": {"mutant D": {"tested_on": "mutant D", "experiment": "Antiviral spectrum, fold resistance towards mutant D", "format": "cell-based", "settings": "FR=IC50(mutant strain)/IC50(HIV-1 strain LAI)", "experimental": "(§1) Because of the increasing emergence of drug resistant HIV strains, the present compounds were tested for their potency against clinically isolated HIV strains harboring several mutations. These mutations are associated with resistance to protease inhibitors and result in viruses that show various degrees of phenotypic cross-resistance to the currently commercially available drugs such as for instance saquinavir, ritonavir, nelfinavir, indinavir and amprenavir. The viral strains R13025, R13027, R13028, R13029, R13034, R13080, T13127 and R13363 contained mutations as indicated below in Table 3."}, "in vitro": {"experiment": "in vitro", "settings": "human"}, "HIV-1 strain LAI": {"tested_on": "HIV-1 strain LAI", "experiment": "Cellular anti-HIV assay, MT4 cells, MTT readout, wild type HIV-1 strain LAI", "format": "cell-based", "experimental": "The compounds of the present invention were examined for anti-viral activity in a cellular assay. […] The cellular assay was performed according to the following procedure."}, "mutant C": {"tested_on": "mutant C", "experiment": "Antiviral spectrum, fold resistance towards mutant C", "format": "cell-based", "settings": "FR=IC50(mutant strain)/IC50(HIV-1 strain LAI)", "experimental": "as §1"}, "mutant F": {"tested_on": "mutant F", "experiment": "Antiviral spectrum, fold resistance towards mutant F", "format": "cell-based", "settings": "FR=IC50(mutant strain)/IC50(HIV-1 strain LAI)", "experimental": "as §1"}, "mutant E": {"tested_on": "mutant E", "format": "cell-based", "settings": "FR=IC50(mutant strain)/IC50(HIV-1 strain LAI)"}, "mutant A": {"tested_on": "mutant A", "format": "cell-based", "settings": "FR=IC50(mutant strain)/IC50(HIV-1 strain LAI)"}, "mutant B": {"tested_on": "mutant B", "experiment": "Antiviral spectrum, fold resistance towards mutant B", "format": "cell-based", "settings": "FR=IC50(mutant strain)/IC50(HIV-1 strain LAI)", "experimental": "as §1"}, "mutant H": {"tested_on": "mutant H", "experiment": "Antiviral spectrum, fold resistance towards mutant H", "format": "cell-based", "settings": "FR=IC50(mutant strain)/IC50(HIV-1 strain LAI)"}, "mutant G": {"tested_on": "mutant G", "experiment": "Antiviral spectrum, fold resistance towards mutant G", "format": "cell-based", "settings": "FR=IC50(mutant strain)/IC50(HIV-1 strain LAI)", "experimental": "as §1"}},
  "note": "Like-named read-outs stand apart in the source and are kept apart here.",
  "data": [
    {"smiles": "CC(C)CN(C[C@@H](O)[C@H](Cc1ccccc1)NC(=O)O[C@H]1CO[C@H]2OCC[C@H]21)S(=O)(=O)c1ccc2ncn(Cc3ccccc3)c2c1", "note": "[Compound 1, [(1S,2R)-2-hydroxy-3-[(2-methylpropyl)[[1-(phenylmethyl)benzimidazol-6-yl]sulfonyl]amino]-1-(phenylmethyl)-propyl]carbamic acid, [(3R,3aS,6aR)-hexahydrofuro[2,3-b]furan-3-yl]ester]", "values": [
      {"measurement": "FR towards mutant D", "setting": "mutant D", "result": 1.5},
      {"measurement": "CC50 at 5 days", "setting": "in vitro", "result": 63.1, "unit": "µM"},
      {"measurement": "IC50", "setting": "HIV-1 strain LAI; Human immunodeficiency virus 1, 120 h, Table 1, MT4 cells, five days, HIV-1 strain LAI, read-out: pIC50 (LAI) (converted)", "result": 0.794, "unit": "nM"},
      {"measurement": "IC50", "setting": "HIV-1 strain LAI; Human immunodeficiency virus 1, MT4, Table 4, wild type HIV-LAI strain, read-out: WT (pIC50 against wild type HIV-LAI strain) (converted)", "result": 0.794, "unit": "nM"},
      {"measurement": "FR towards mutant C", "setting": "mutant C", "result": 1.1},
      {"measurement": "FR towards mutant F", "setting": "mutant F", "result": 40},
      {"measurement": "FR towards mutant E", "setting": "mutant E", "result": 1.6},
      {"measurement": "FR value towards mutant A", "setting": "mutant A", "result": 9.3},
      {"measurement": "FR towards mutant B", "setting": "mutant B", "result": 3.1},
      {"measurement": "FR towards mutant H", "setting": "mutant H", "result": 33},
      {"measurement": "FR towards mutant G", "setting": "mutant G", "result": 275}
    ]}
  ]
}
